Laboratory results: patent publication US20120101093A1, “SUBSTITUTED IMIDAZO[1,2-A]PYRIDINE DERIVATIVES, PHARMACEUTICAL COMPOSITIONS, AND METHODS OF USE AS BETA-SECRETASE INHIBITORS” (HIGH POINT PHARMACEUTICALS, LLC, priority 2009, published 2012)

Tests used:
[1] = system: Aβ1-40 secreted from HEK293 cells stably expressing wildtype human APP695 protein (HEK-APPwt cells); experiment: Aβ Cell Based Assay (Aβ1-40 secretion, ELISA); details: 6 hours incubation, reduction of Aβ1-40 secretion
Method: Aβ Cell Based Assay Procedure
In the following assay, the proteolytic activity of BACE in cells exposed to varying concentrations of a compound of interest is measured by observing the amount of Aβ1-40 secreted from HEK293 cells (Human Embryonic Kidney epithelial cell line) stably expressing wildtype human APP695 protein (HEK-APPwt cells).
HEK-APPwt cells were grown in high glucose DMEM (Dulbecco's Modified Eagles Medium SIGMA Cat.# D5796) supplemented with 25 mM HEPES (4-(2-hydroxyethyl)-1-piperazineethanesulfonic acid) (pH 7.4) (Invitrogen Cat.# 15630-114), 0.1 mM NEAA (Non-essential Amino Acids) (BioWhittaker Cat. #13-114E), 10% fetal bovine serum (SIGMA Cat. #F4135) and 250 μg/mL hygromycin (Invitrogen Cat. #10687-010) in T-225 flasks at 37° C. with 5% CO2 and humidity control.
Test compounds were initially prepared in DMSO and diluted with DMEM media containing 2% FBS (Fetal bovine serum). Ten standard compound solutions were prepared having a range of concentrations. The standard compound solutions were used to determine the EC50 of the test compound. The range of concentrations chosen may depend on the compound's predicted potency.
To prepare the cells for the assay, a flask containing HEK-APPwt cells were trypsinized briefly (1 mL trypsin), and once the cells detached, 4 mL of 10% FBS-DMEM was added to the flask. The detached cells were centrifuged at 900 rpm for 5 min to form a pellet.
The HEK-APPwt cell pellet was re-suspended with 10 mL DMEM media containing 2% FBS. 80 μL of the cell suspension was added to each well of a 96-well cell culture plate to give 100×10^4cells/ml. 10 μL of a standard compound solution was added to each well of the 96-well cell culture plate followed by 10 μL of Alamar blue solution. The cells were incubated at 37° C. in a 5% CO2 incubator for 6 hours.
At the end of the incubation, the plates were removed from incubator, and the supernatant was collected. A≈1-40 concentration in the medium was measured by using a commercial Aβ1-X ELISA kit (IBL, Japan Cat. #27729). Briefly, the ELISA plates were coated with an anti-human AO (N)(82E1) mouse IgG monoclonal antibody. A horseradish peroxidase conjugated anti-human Aβ11-28 mouse IgG monoclonal antibody was used for detection. The cell culture supernatant was diluted with EIA buffer +protease inhibitors (kit buffer containing protease inhibitors (1 mL PI/30 mL buffer)). A 100 μL aliquot of the diluted supernatant was added to each well of the ELISA plate and incubated for 6 hrs at 4° C. The ELISA plate was washed 8 times with phosphate buffered saline (PBS) containing 0.05% Tween 20.
A 100 μL of detection antibody was then added and incubated for 1 hour at 4° C. The plate was washed 8 times with PBS buffer containing 0.05% Tween 20 followed by addition of 100 μL of the chromogen tetramethylbenzidine (TMB). The plate was incubated in the dark at room temperature for about 30 min and a stop solution (1N H2SO4) was added.
The intensity of the color developed was measured at 450 nm. The optical density at 450 nm (OD450) is proportional to the concentration of human Aβ1-40 secreted by the cell. As a reference, N-[N-(3,5-difluorophenacetyl-L-alanyl)]-S-phenylglycine t-butyl ester (DAPT, a γ-secretase inhibitor) was used to indicate 100% inhibition of BACE activity. Thus, the assay measures the ability of a compound of interest to reduce Aβ1-40 secretion. For select compounds, compound potency is reported in Table 3 as the EC50 by calculating the percent inhibition at all concentration levels and the data were fit with non-linear curve fitting algorithm using GraphPad Prism.

BACE-1 enzyme = target: T1, BACE-1 enzyme (Homo sapiens, UniProt P56817); experiment: BACE Fluorescence Resonance Energy Transfer (FRET) Assay; assay type: biochemical; details: pH 4-4.5, 30 min pre-incubation, about 1.5 hours reaction
T1 construct: purchased R & D Systems 931AS
In short: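 Fluorescence (ex 540, em 585 nm) after ~1.5 h room-temperature cleavage of a quenched rhodamine peptide tracks BACE-1 activity. Enzyme and compound first sit 30 min in pH 4-4.5 acetate buffer with CHAPS, Triton X-100, EDTA, 7.5% DMSO. Values given as IC50 or % inhibition.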

T1 sequence (P56817 46-457 limits assumed): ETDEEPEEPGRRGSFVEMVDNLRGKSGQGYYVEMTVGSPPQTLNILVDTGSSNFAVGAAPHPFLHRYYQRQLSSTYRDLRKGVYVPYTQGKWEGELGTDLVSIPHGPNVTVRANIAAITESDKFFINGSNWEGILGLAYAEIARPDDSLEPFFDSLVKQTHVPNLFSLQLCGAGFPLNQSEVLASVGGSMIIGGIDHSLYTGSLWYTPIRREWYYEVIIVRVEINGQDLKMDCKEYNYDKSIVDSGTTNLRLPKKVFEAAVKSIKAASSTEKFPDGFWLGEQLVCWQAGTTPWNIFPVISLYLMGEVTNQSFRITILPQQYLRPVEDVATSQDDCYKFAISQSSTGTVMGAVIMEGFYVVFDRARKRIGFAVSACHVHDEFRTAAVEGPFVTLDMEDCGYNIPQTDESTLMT

## Cc1cccn2cc(C(=O)Nc3nc4cc(-c5ccc(C(C)(C)C)cc5)ccc4[nH]3)nc12 [Example 78, 8-Methyl-imidazo[1,2-a]pyridine-2-carboxylic acid [5-(4-tert-butyl-phenyl)-1H-benzoimidazol-2-yl]-amide]
[1]; Homo sapiens, HEK293, 6 h
  EC50: 0.98 µM
BACE-1 enzyme
  IC50: 0.37 µM

## CCOc1ccc(-c2ccc3[nH]c(NC(=O)c4cn5c(C)cccc5n4)nc3c2)cc1Cl [Example 79, 5-Methyl-imidazo[1,2-a]pyridine-2-carboxylic acid [5-(3-chloro-4-ethoxy-phenyl)-1H-benzoimidazol-2-yl]-amide]
[1]
  EC50: 1.54 µM
BACE-1 enzyme
  IC50: 1.82 µM

## CCOc1ccc(-c2ccc3[nH]c(NC(=O)c4cn5c(C)cccc5n4)nc3c2)cc1F [Example 80, 5-Methyl-imidazo[1,2-a]pyridine-2-carboxylic acid [5-(4-ethoxy-3-fluoro-phenyl)-1H-benzoimidazol-2-yl]-amide]
[1]; Homo sapiens, HEK293, 6 h
  EC50: 1.32 µM
BACE-1 enzyme
  IC50: 0.81 µM

## Cc1cccc2nc(C(=O)Nc3nc4cc(-c5cccc(C#N)c5)ccc4[nH]3)cn12 [Example 82, 5-Methyl-imidazo[1,2-a]pyridine-2-carboxylic acid [5-(3-cyano-phenyl)-1H-benzoimidazol-2-yl]-amide]
[1]; Homo sapiens, HEK293, 6 h
  EC50: 1.1 µM
BACE-1 enzyme
  IC50: 2.21 µM

## Cc1cccc2nc(C(=O)Nc3nc4cc(C5=CCCCC5)ccc4[nH]3)cn12 [Example 83, 5-Methyl-imidazo[1,2-a]pyridine-2-carboxylic acid (5-cyclohex-1-enyl-1H-benzoimidazol-2-yl)-amide]
[1]; Homo sapiens, HEK293, 6 h
  EC50: 4.17 µM
BACE-1 enzyme
  IC50: 1.45 µM

## Cc1cccn2cc(C(=O)Nc3nc4cc(-c5cccc(C#N)c5)ccc4[nH]3)nc12 [Example 84, 8-Methyl-imidazo[1,2-a]pyridine-2-carboxylic acid [5-(3-cyano-phenyl)-1H-benzoimidazol-2-yl]-amide]
[1]; Homo sapiens, HEK293, 6 h
  EC50: 2.9 µM
BACE-1 enzyme
  IC50: 1.21 µM

## Cc1cccc2nc(C(=O)Nc3nc4cc(-c5cc(Cl)ccc5Cl)ccc4[nH]3)cn12 [Example 87, 5-Methyl-imidazo[1,2-a]pyridine-2-carboxylic acid [5-(2,5-dichloro-phenyl)-1H-benzoimidazol-2-yl]-amide]
[1]; Homo sapiens, HEK293, 6 h
  EC50: 0.73 µM
BACE-1 enzyme
  IC50: 0.22 µM

## Cc1cccc2nc(C(=O)Nc3nc4cc(-c5ccc(C(F)(F)F)c(Cl)c5)ccc4[nH]3)cn12 [Example 92, 5-Methyl-imidazo[1,2-a]pyridine-2-carboxylic acid [5-(3-chloro-4-trifluoromethyl-phenyl)-1H-benzoimidazol-2-yl]-amide]
[1]; Homo sapiens, HEK293, 6 h
  EC50: 0.22 µM
BACE-1 enzyme
  IC50: 0.6 µM

## Cc1cccc2nc(C(=O)Nc3nc4cc(-c5ccc(OC(C)C)cc5)ccc4[nH]3)cn12 [Example 97, 5-Methyl-imidazo[1,2-a]pyridine-2-carboxylic acid [5-(4-isopropoxy-phenyl)-1H-benzoimidazol-2-yl]-amide]
[1]; Homo sapiens, HEK293, 6 h
  EC50: 1.78 µM
BACE-1 enzyme
  IC50: 0.58 µM

## Cc1cc(-c2ccc3[nH]c(NC(=O)c4cn5c(C)cccc5n4)nc3c2)ccc1Cl [Example 99, 5-Methyl-imidazo[1,2-a]pyridine-2-carboxylic acid [5-(4-chloro-3-methyl-phenyl)-1H-benzoimidazol-2-yl]-amide]
[1]; Homo sapiens, HEK293, 6 h
  EC50: 0.12 µM
BACE-1 enzyme
  IC50: 0.27 µM

## Cc1cccc2nc(C(=O)Nc3nc4cc(-c5ccc(O)c(C(F)(F)F)c5)ccc4[nH]3)cn12 [Example 100, 5-Methyl-imidazo[1,2-a]pyridine-2-carboxylic acid [5-(4-hydroxy-3-trifluoromethyl-phenyl)-1H-benzoimidazol-2-yl]-amide]
[1]; Homo sapiens, HEK293, 6 h
  EC50: 2.44 µM
BACE-1 enzyme
  IC50: 0.46 µM

## Cc1cccc2nc(C(=O)Nc3nc4cc(-c5ccsc5)ccc4[nH]3)cn12 [Example 102, 5-Methyl-imidazo[1,2-a]pyridine-2-carboxylic acid (5-thiophen-3-yl-1H-benzoimidazol-2-yl)-amide]
[1]; Homo sapiens, HEK293, 6 h
  EC50: 2.46 µM
BACE-1 enzyme
  IC50: 0.45 µM

## CCOc1ccc(-c2ccc3[nH]c(NC(=O)c4cn5c(C)cccc5n4)nc3c2)cc1Cl [Example 106, 5-Methyl-imidazo[1,2-a]pyridine-2-carboxylic acid [5-(3-chloro-4-ethoxy-phenyl)-1H-benzoimidazol-2-yl]-amide]
[1]; Homo sapiens, HEK293, 6 h
  EC50: 0.93 µM
BACE-1 enzyme
  IC50: 0.8 µM

## CCOc1ccc(-c2ccc3[nH]c(NC(=O)c4cn5c(C)cccc5n4)nc3c2)cc1C [Example 107, 5-Methyl-imidazo[1,2-a]pyridine-2-carboxylic acid [5-(4-ethoxy-3-methyl-phenyl)-1H-benzoimidazol-2-yl]-amide]
[1]; Homo sapiens, HEK293, 6 h
  EC50: 2.95 µM
BACE-1 enzyme
  IC50: 0.84 µM

## Cc1cccc2nc(C(=O)Nc3nc4cc(-c5cccc(C(F)(F)F)c5O)ccc4[nH]3)cn12 [Example 109, 5-Methyl-imidazo[1,2-a]pyridine-2-carboxylic acid [5-(2-hydroxy-3-trifluoromethyl-phenyl)-1H-benzoimidazol-2-yl]-amide]
[1]; Homo sapiens, HEK293, 6 h
  EC50: 4.85 µM
BACE-1 enzyme
  IC50: 0.87 µM

## COc1c(-c2ccc3[nH]c(NC(=O)c4cn5c(C)cccc5n4)nc3c2)cccc1C(F)(F)F [Example 110, 5-Methyl-imidazo[1,2-a]pyridine-2-carboxylic acid [5-(2-methoxy-3-trifluoromethyl-phenyl)-1H-benzoimidazol-2-yl]-amide]
[1]; Homo sapiens, HEK293, 6 h
  EC50: 0.75 µM
BACE-1 enzyme
  IC50: 0.4 µM

## O=C(Nc1nc2cc(-c3cccc(C(F)(F)F)c3)ccc2[nH]1)c1cn2cc(F)ccc2n1 [Example 112, 6-Fluoro-imidazo[1,2-a]pyridine-2-carboxylic acid [5-(3-trifluoromethyl-phenyl)-1H-benzoimidazol-2-yl]-amide]
[1]; Homo sapiens, HEK293, 6 h
  EC50: 1.94 µM
BACE-1 enzyme
  IC50: 0.43 µM

## O=C(Nc1nc2cc(-c3cccc(C(F)(F)F)c3)ccc2[nH]1)c1cn2ccccc2n1 [Example 115, Imidazo[1,2-a]pyridine-2-carboxylic acid [5-(3-trifluoromethyl-phenyl)-1H-benzoimidazol-2-yl]-amide]
[1]; Homo sapiens, HEK293, 6 h
  EC50: 1.43 µM
BACE-1 enzyme
  IC50: 0.37 µM

## O=C(Nc1nc2cc(-c3cccc(OC(F)(F)F)c3)ccc2[nH]1)c1cn2ccccc2n1 [Example 117, Imidazo[1,2-a]pyridine-2-carboxylic acid [5-(3-trifluoromethoxy-phenyl)-1H-benzoimidazol-2-yl]-amide]
[1]; Homo sapiens, HEK293, 6 h
  EC50: 3.67 µM
BACE-1 enzyme
  IC50: 0.54 µM

## Cc1cccc2nc(C(=O)Nc3nc4cc(C5CCC(C)CC5)ccc4[nH]3)cn12 (centres unmarked) [Example 119, 5-Methyl-imidazo[1,2-a]pyridine-2-carboxylic acid [5-(4-methyl-cyclohexyl)-1H-benzoimidazol-2-yl]-amide]
[1]; Homo sapiens, HEK293, 6 h
  EC50: 1.82 µM
BACE-1 enzyme
  IC50: 0.27 µM

## CN(C)c1cccc2nc(C(=O)Nc3nc4cc(-c5cccc(C(F)(F)F)c5)ccc4[nH]3)cn12 [Example 121, 5-Dimethylamino-imidazo[1,2-a]pyridine-2-carboxylic acid [5-(3-trifluoromethyl-phenyl)-1H-benzoimidazol-2-yl]-amide]
[1]; Homo sapiens, HEK293, 6 h
  EC50: 0.37 µM
BACE-1 enzyme
  IC50: 0.67 µM

## COCCNc1cccc2nc(C(=O)Nc3nc4cc(-c5cccc(C(F)(F)F)c5)ccc4[nH]3)cn12 [Example 122, 5-(2-Methoxy-ethylamino)-imidazo[1,2-a]pyridine-2-carboxylic acid [5-(3-trifluoromethyl-phenyl)-1H-benzoimidazol-2-yl]-amide]
[1]; Homo sapiens, HEK293, 6 h
  EC50: 1.5 µM
BACE-1 enzyme
  IC50: 0.54 µM
